Laboratory results published in PMC9742639, “Inhibition of glycogen synthase kinase-3-beta (GSK3β) blocks nucleocapsid phosphorylation and SARS-CoV-2 replication” (Molecular Biomedicine, 2022).
Values joined by “and” are separate entries in the source; they are usually repeats but may differ in a detail not shown here. Equal entries are not always repeated. Where two headings read alike, the source gives them in different places. Square brackets hold non-standard residues; d marks the D form. Primed or numbered codes have the meaning given here. Ends that are not written are not given here. pS′ = not defined here; pT′ = not defined here

Tests used:
HCoV-229E [1] = assay: High-content screen / dose-response of HCoV-229E-infected Huh-7.5.1 cells (dsRNA); format: cell-based
SARS-CoV-2 [2] = assay: High-content screen / dose-response of SARS-CoV-2-infected Huh-7.5.1 cells (dsRNA, nucleocapsid); format: cell-based; conditions: for ED50, activity against SARS-CoV-2 / inhibition at 10 µM: Huh-7.5.1 cells; for ED50, activity against SARS-CoV-2: intracellular N protein; for inhibition at 10 µM: Severe acute respiratory syndrome coronavirus 2
GSK3β = target: T1, GSK3β (Homo sapiens, UniProt P49841); assay: In vitro inhibition of GSK3β, ADP-Glo Kinase Assay; format: biochemical; conditions: read-out: IC50, GSK3β enzymatic activity
T1 construct: GST; purchased SignalChem G09-10G
T1 sequence (P49841 whole entry): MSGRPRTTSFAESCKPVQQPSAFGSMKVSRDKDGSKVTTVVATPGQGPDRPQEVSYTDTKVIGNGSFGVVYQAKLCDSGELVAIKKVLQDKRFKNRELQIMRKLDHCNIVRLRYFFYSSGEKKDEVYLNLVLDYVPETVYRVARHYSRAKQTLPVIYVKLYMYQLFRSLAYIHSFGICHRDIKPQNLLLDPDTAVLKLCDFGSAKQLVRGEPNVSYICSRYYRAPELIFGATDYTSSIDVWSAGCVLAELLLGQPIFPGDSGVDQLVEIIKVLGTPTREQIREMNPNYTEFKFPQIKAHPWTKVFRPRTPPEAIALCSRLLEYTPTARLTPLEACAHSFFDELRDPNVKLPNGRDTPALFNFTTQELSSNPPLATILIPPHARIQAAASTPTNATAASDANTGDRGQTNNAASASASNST
Procedure: All protein kinase reactions were performed with the ADP-Glo Kinase Assay from ProMega (Madison, WI, USA). Substrate peptides were assayed at a final concentration of ~ 250 μM with 250 μM ATP for 30 min at 30 °C in a final volume of 25 μL. Recombinant nucleocapsid was similarly assayed at a final concentration of 13.4 ng/μL. The concentrations of recombinant protein kinases used were ~ 2 ng/μL.
Supplemental Figure S3: in vitro inhibition of GSK3. ADP-Glo^TM Kinase Assay normalized to the negative control (100% kinase activity), dose-response was analyzed by non-linear regression.

SARS-CoV-2 [3] = assay: Viral titer from 48-h SARS-CoV-2-infected Calu-3 cells; format: cell-based; conditions: 48 h after infection and treatment, 100 μM
HCoV-229E [4] = assay: Chou-Talalay synergy with Remdesivir in HCoV-229E-infected cells; format: cell-based; conditions: Chou-Talalay method, CI < 1 synergistic
Procedure: Statistical analyses were performed and figures were prepared using GraphPad Prism 9™ (GraphPad Software, Inc.). Imbedded blots and fluorescent images were generated using GIMP^©. Chou-Talalay synergy analysis was performed using CompuSyn (ComboSyn Inc.). CI values < 1 are defined as synergistic, CI = 1 as additive, and CI > 1 as antagonistic.
Supplemental Figure S4: Synergy experiment. Dose-response combination of Remdesivir (Rem) and T-1686568 (T2) using CompuSyn V1.0. Representative experiment of two independent experiments.

SARS-CoV-2 [5] = assay: SARS-CoV-2 infection of primary donor-derived colon organoids (intracellular N protein); format: cell-based; conditions: donor intestinal organoids monolayer, 72 hrs post-infection
SARS-CoV-2 [6] = format: cell-based
in vitro = conditions: human
Procedure: (§1) Total number of cells (via nuclei staining) and number of virus-infected cells (via dsRNA and nucleocapsid staining) was measured using the CellInsight CX5 High Content Screening platform (Thermo Fisher), as previously described [24]. Briefly, cell nuclei are stained with Hoechst (33342) for detection at the 350/461 nm wavelength and a region of interest (ROI) marks each cell, which is verified using cell membrane imaging in the bright field. The ROI includes the areas where dsRNA (485/521 nm wavelength) and SARS-CoV-2 nucleocapsid (533/588 nm wavelength) are localized. The software (HCS Studio Cell Analysis Software, version 4.0) tallies ROIs where dsRNA and nucleocapsid are located within stained nuclei by compiling pixel area and intensity measurements. The fluorescence emitted by the dsRNA and nucleocapsid are then quantified for each well. The total intensity of each well indicates the viral load and is normalized against non-infected cells and untreated infected cells. Cell loss (from cytotoxicity or poor adherence) was quantified using the same stain (Hoechst 33342) and was used to normalize the changes in viral load resulting from a decrease in cell numbers. Based on average variation in control treatments between experiments, significant cell loss was considered a loss of > 20% cells relative to the non-infected control.

Huh-7.5.1 cells = assay: Cell loss / toxicity to Huh-7.5.1 host cells (nuclei count); conditions: 10 µM, infected Huh-7.5.1 cells
Procedure: as §1

GSK3b = target: T2, GSK3b (Homo sapiens, UniProt P49841); assay: In vitro phosphorylation of nucleocapsid peptides, ADP-Glo; format: biochemical; conditions: for Phosphorylation by GSK3b (Table 2): Mean ± Standard deviation, n = 3, no peptide substrate 1995 ± 133; for Relative phosphorylation by GSK3b: kinase with ATP alone, no peptide = 100, peptide ~250 μM, ATP 250 μM, 30 min
T2 construct: GST; purchased SignalChem G09-10G
T2 sequence (P49841 whole entry): as above

PKACa = PKACa (Homo sapiens, UniProt P17612); assay: as above; format: biochemical; conditions: kinase with ATP alone, no peptide = 100; peptide ~250 μM, ATP 250 μM, 30 min
PKCa = target: T3, PKCa (Homo sapiens, UniProt P17252); assay: as above; format: biochemical; conditions: for Phosphorylation by PKCa (Table 2): Mean ± Standard deviation, n = 3, no peptide substrate 1282 ± 51; for Relative phosphorylation by PKCa: kinase with ATP alone, no peptide = 100, peptide ~250 μM, ATP 250 μM, 30 min
T3 construct: GST; purchased SignalChem P61-18G

CDK2 + Cyclin A2 = CDK2 + Cyclin A2 (Homo sapiens, UniProt P24941); assay: as above; format: biochemical; conditions: kinase with ATP alone, no peptide = 100; peptide ~250 μM, ATP 250 μM, 30 min
CK1d = target: T4, CK1d (Homo sapiens, UniProt P48730); assay: as above; format: biochemical; conditions: kinase with ATP alone, no peptide = 100; peptide ~250 μM, ATP 250 μM, 30 min
T4 construct: GST; purchased SignalChem C65-10G
T4 sequence (P48730 whole entry): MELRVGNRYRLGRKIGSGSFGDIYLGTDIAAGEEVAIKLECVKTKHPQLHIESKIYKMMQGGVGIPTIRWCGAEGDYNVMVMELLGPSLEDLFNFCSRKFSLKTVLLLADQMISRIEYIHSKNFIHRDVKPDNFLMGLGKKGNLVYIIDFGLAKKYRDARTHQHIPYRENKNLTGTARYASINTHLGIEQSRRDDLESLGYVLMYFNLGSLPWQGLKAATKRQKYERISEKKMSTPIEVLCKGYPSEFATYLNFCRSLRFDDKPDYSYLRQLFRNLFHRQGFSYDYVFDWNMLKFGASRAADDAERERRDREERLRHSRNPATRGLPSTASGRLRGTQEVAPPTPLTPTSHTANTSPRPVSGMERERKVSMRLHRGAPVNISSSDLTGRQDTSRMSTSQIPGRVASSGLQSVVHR

CK1g1 = target: T5, CK1g1 (Homo sapiens, UniProt Q9HCP0); assay: as above; format: biochemical; conditions: kinase with ATP alone, no peptide = 100; peptide ~250 μM, ATP 250 μM, 30 min
T5 construct: GST; purchased SignalChem C68-11G
T5 sequence (Q9HCP0 whole entry): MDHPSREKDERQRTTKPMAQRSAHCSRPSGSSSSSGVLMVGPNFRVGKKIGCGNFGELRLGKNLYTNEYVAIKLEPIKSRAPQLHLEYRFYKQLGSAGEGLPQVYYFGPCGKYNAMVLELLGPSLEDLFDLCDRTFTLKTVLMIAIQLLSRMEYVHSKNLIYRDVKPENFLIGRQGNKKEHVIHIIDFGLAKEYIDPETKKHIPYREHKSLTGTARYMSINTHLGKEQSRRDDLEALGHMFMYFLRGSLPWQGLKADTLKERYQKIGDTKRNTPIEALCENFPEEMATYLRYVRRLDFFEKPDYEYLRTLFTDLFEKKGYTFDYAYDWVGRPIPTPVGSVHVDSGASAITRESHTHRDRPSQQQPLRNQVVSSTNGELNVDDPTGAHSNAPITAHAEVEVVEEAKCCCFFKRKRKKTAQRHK

ERK1 = target: T6, ERK1 (Homo sapiens, UniProt P27361); assay: as above; format: biochemical; conditions: kinase with ATP alone, no peptide = 100; peptide ~250 μM, ATP 250 μM, 30 min
T6 construct: GST; purchased SignalChem M29-10G
T6 sequence (P27361 whole entry): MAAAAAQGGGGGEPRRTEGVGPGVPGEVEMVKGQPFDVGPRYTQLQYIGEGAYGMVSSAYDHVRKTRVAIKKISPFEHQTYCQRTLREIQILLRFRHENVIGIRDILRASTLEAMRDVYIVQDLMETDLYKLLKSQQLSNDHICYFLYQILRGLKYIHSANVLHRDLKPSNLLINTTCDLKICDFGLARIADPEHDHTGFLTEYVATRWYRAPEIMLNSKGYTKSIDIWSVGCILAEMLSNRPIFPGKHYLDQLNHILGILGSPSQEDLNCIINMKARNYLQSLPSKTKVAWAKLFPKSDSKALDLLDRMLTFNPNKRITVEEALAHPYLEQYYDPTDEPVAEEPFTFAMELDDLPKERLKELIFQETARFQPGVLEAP

CK2a1 = target: T7, CK2a1 (Homo sapiens, UniProt P68400); assay: as above; format: biochemical; conditions: kinase with ATP alone, no peptide = 100; peptide ~250 μM, ATP 250 μM, 30 min
T7 construct: GST; purchased SignalChem C70-10G
T7 sequence (P68400 whole entry): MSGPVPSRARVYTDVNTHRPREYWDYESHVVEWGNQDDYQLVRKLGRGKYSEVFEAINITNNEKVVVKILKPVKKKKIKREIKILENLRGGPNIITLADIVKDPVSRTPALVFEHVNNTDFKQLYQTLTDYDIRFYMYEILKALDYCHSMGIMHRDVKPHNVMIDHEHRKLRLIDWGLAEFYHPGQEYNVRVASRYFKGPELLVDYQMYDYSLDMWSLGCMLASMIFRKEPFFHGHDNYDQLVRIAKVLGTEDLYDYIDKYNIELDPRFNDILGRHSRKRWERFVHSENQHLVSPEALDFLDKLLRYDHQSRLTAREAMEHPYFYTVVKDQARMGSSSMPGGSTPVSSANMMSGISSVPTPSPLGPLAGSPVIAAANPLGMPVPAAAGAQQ

CK1a1 = target: T8, CK1a1 (Homo sapiens, UniProt P48729); assay: as above; format: biochemical; conditions: kinase with ATP alone, no peptide = 100; peptide ~250 μM, ATP 250 μM, 30 min
T8 construct: GST; purchased SignalChem C64-10G
T8 sequence (P48729 whole entry): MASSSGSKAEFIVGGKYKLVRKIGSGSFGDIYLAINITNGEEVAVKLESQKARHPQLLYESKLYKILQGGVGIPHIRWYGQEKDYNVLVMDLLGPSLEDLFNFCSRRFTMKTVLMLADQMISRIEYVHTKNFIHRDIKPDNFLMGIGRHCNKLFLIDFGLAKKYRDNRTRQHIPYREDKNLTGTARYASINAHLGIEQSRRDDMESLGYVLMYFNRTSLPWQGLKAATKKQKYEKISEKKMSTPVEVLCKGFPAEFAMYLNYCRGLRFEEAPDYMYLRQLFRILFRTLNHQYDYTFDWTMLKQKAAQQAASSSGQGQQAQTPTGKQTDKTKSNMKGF

[7] = average of screens 1 and 2, read-out: Average SARS-CoV-2 Nucleocapsid inhibition
[8] = screen 1, read-out: SARS-CoV-2 inhibition (% Nucleocapsid) 1
[9] = screen 2, read-out: SARS-CoV-2 inhibition (% Nucleocapsid) 2
[10] = read-out: SARS-CoV-2 inhibition (% dsRNA)

CSc1ccc(-n2cnc3ccc(-c4nnc(CCc5cccc(C#N)c5)o4)cc32)cc1 [P-0717632]
ED50, activity against HCoV-229E (HCoV-229E [1]): ~ 3 μM | ED50, activity against SARS-CoV-2 (SARS-CoV-2 [2]): 2.7 µM | ED50, activity against SARS-CoV-2 (SARS-CoV-2 [2]; listed as T-1686568): ~ 3 μM | inhibition at 10 µM (SARS-CoV-2 [2]; [7]): 79.3% | inhibition at 10 µM (SARS-CoV-2 [2]; [8]): 75.2% | inhibition at 10 µM (SARS-CoV-2 [2]; [9]): 83.3% | inhibition at 10 µM (SARS-CoV-2 [2]; [10]): 68.2% | ED80 (SARS-CoV-2 [2]; infected Huh-7.5.1 cells): 10 µM | IC50 (GSK3β): 0.102 µM | reduction of viral titres (SARS-CoV-2 [3]): 2 log | average Combination Index (CI) (HCoV-229E [4]): 0.7 | effect on intracellular N protein levels (SARS-CoV-2 [5]): greatly decrease intracellular N protein levels | N protein in remaining infected cells (SARS-CoV-2 [6]): accumulated | S protein expression (SARS-CoV-2 [6]): reduced | CC50 (in vitro): > 100 µM | Average cell loss (%) (Huh-7.5.1 cells): 24.4%

C[S+]([O-])c1ccc(-c2coc3ccc(-c4nnc(SCc5cccc(F)c5)o4)cc23)cc1 (stereo not shown) [P-7657632]
ED50, activity against HCoV-229E (HCoV-229E [1]): ~ 3 μM | ED50, activity against SARS-CoV-2 (SARS-CoV-2 [2]): ~ 3 μM and 2.9 μM | inhibition at 10 µM (SARS-CoV-2 [2]; [7]): 93.1% | inhibition at 10 µM (SARS-CoV-2 [2]; [8]): 100% | inhibition at 10 µM (SARS-CoV-2 [2]; [9]): 86.2% | inhibition at 10 µM (SARS-CoV-2 [2]; [10]): 100% | CC50 (in vitro): 39 µM | Average cell loss (%) (Huh-7.5.1 cells): 25.4%

CSc1ccc(-c2coc3ccc(-c4nnc(N)o4)cc23)cc1Cl [P-9071942]
ED50, activity against HCoV-229E (HCoV-229E [1]): ~ 3 μM | ED50, activity against SARS-CoV-2 (SARS-CoV-2 [2]): ~ 3 μM and 3.3 μM | inhibition at 10 µM (SARS-CoV-2 [2]; [7]): 94.5% | inhibition at 10 µM (SARS-CoV-2 [2]; [8]): 100% | inhibition at 10 µM (SARS-CoV-2 [2]; [9]): 89.1% | inhibition at 10 µM (SARS-CoV-2 [2]; [10]): 100% | CC50 (in vitro): 27 µM | Average cell loss (%) (Huh-7.5.1 cells): 29.9%

RGGSQASSRSS(pS)RS (RGGSQASSRSS[pS′]RS) [SCV2-N [177-190] - pS188, synthetic peptide modeled after SARS-CoV-2 nucleocapsid phosphorylation sites, pre-phosphorylated at S188]
Phosphorylation by GSK3b (Table 2) (GSK3b): 24,585 ± 645 | Relative phosphorylation by GSK3b (GSK3b): 1209 | Relative phosphorylation by PKACa (PKACa): 128 | Phosphorylation by PKCa (Table 2) (PKCa): 3861 ± 71 | Relative phosphorylation by PKCa (PKCa): 389

RNSTPGSSRGT(pS)PAR (RNSTPGSSRGT[pS′]PAR) [SCV2-N [195-209] - pS206, synthetic peptide modeled after SARS-CoV-2 nucleocapsid phosphorylation sites, pre-phosphorylated at S206]
Relative phosphorylation by CDK2 + Cyclin A2 (CDK2 + Cyclin A2): 100 | Relative phosphorylation by CK1d (CK1d): 105 | Relative phosphorylation by CK1g1 (CK1g1): 105 | Relative phosphorylation by ERK1 (ERK1): 100 | Phosphorylation by GSK3b (Table 2) (GSK3b): 24,082 ± 381 | Relative phosphorylation by GSK3b (GSK3b): 1068 | Relative phosphorylation by PKACa (PKACa): 205 | Phosphorylation by PKCa (Table 2) (PKCa): 1531 ± 47

SQASSRSSSR(pS)RNS (SQASSRSSSR[pS′]RNS) [SCV2-N [180-193] - pS190, synthetic peptide modeled after SARS-CoV-2 nucleocapsid phosphorylation sites, pre-phosphorylated at S190]
Relative phosphorylation by CK2a1 (CK2a1): 100 | Phosphorylation by GSK3b (Table 2) (GSK3b): 2957 ± 3 | Relative phosphorylation by GSK3b (GSK3b): 111 | Relative phosphorylation by PKACa (PKACa): 312 | Phosphorylation by PKCa (Table 2) (PKCa): 4161 ± 66 | Relative phosphorylation by PKCa (PKCa): 418

SSRSRNSSRNS(pT)PG (SSRSRNSSRNS[pT′]PG) [SCV2-N [187-200] - pT198, synthetic peptide modeled after SARS-CoV-2 nucleocapsid phosphorylation sites, pre-phosphorylated at T198]
Relative phosphorylation by CDK2 + Cyclin A2 (CDK2 + Cyclin A2): 101 | Relative phosphorylation by CK1a1 (CK1a1): 250 | Relative phosphorylation by CK1d (CK1d): 152 | Relative phosphorylation by CK2a1 (CK2a1): 102 | Relative phosphorylation by ERK1 (ERK1): 100 | Phosphorylation by GSK3b (Table 2) (GSK3b): 23,031 ± 486 | Relative phosphorylation by GSK3b (GSK3b): 1042 | Relative phosphorylation by PKACa (PKACa): 157 | Phosphorylation by PKCa (Table 2) (PKCa): 7032 ± 319 | Relative phosphorylation by PKCa (PKCa): 553
